Results taken from US20080287299A1, “Use of Imidazole and/or Triazole Derivatives for Combating Plant Pests; as Well as Method for Controlling Diseases/Insects/Mites/Nematodes and Weeds, Particularly Foliar and/or Soil Diseases” (priority 2005, published 2008).

System: Phakopsora pachyrhizi
Assay: Greenhouse soybean rust test, plants at V5 stage, evaluated every 7 days
Type: in vivo
Conditions: for SEVERITY OF RUST (% IFA) 7 DAT / SEVERITY OF RUST (% IFA) 14 DAT / SEVERITY OF RUST (% IFA) 21 DAT / SEVERITY OF RUST (% IFA) 28 DAT: soybean; for effective in controlling soybean rust: from 50 grams of active ingredient per hectare
From the text: Recent tests carried out in greenhouses the laboratory of FMC Quimica do Brasil Ltda. in Uberaba, MG, Brazil, show the highly fungicidal effect of said specific imidazole and/or triazole derivatives in combating diseases of plants, particularly against the attack by the fungus Phakopsora pachyrhizi on soybeans, as described hereinafter.
Experimental Outline Experimental Outline: entirely made with five repetitions, two plants per repetition, totaling 10 plants.
a) Preventive Mode: 30 days after plantation of the soybeans in plastic 2-liter pots and with corresponding volumes of soil, the soybean plants were at the V5 stage with six expanded folioles. At this moment, the compounds were sprayed and then, 48 hours afterwards, inoculation of the rust was effected. To effect the inoculation, one prepared a suspension of Phakopsora uredospores at the concentration of 2×10^4 spores/milliliters.
b) Healing mode: 30 days after plantation of the soybeans in 2-liter plastic pots and with a corresponding volume of soil, the soybean plants were at the V5 stage with six expanded folioles. At this moment, one effected the inoculation of the rust and then, 48 hours afterwards, the compounds were sprayed. To effect the inoculation, one prepared a suspension of Phakopsora uredospores at the concentration of 2×10^4 spores/milliliters.
Equipment: a manual sprayer commonly used in agriculture with 2-liter capacity.
Dosages: 50 to 300 grams per hectare of the active compound Itraconazole per liter diluted in water.
Evaluations of the Effectiveness of the Product: The evaluations were made every 7 days after application of the product, in a total of 4 evaluations. As an evaluation parameter one utilized the severity of the disease (percentage of foliar area attacked by rust) according to FIG. 1).
Dosages: 50 to 300 grams per hectare of the active compound Voriconazole per liter diluted in water.

CC[C@@H]([C@H](C)O)n1ncn(-c2ccc(N3CCN(c4ccc(OC[C@@H]5CO[C@](Cn6cncn6)(c6ccc(F)cc6F)C5)cc4)CC3)cc2)c1=O [Posaconazole, 1-((1S,2S)-1-ethyl-2-hydroxypropyl)-4-{4-[4-(4-{[(5S,3R)-5-(2,4-difluorophenyl)-5-(1,2,4-triazolylmethyll)oxolan-3-yl]methoxy}phenyl)pipera-zinyl]phenyl}-1,2,4-triazolin-5-one]
SEVERITY OF RUST (% IFA) 7 DAT (Table 6: 50 g ac/ha): 11 % IFA
SEVERITY OF RUST (% IFA) 14 DAT (Table 6: 50 g ac/ha): 13 % IFA
SEVERITY OF RUST (% IFA) 21 DAT (Table 6: 50 g ac/ha): 15 % IFA
SEVERITY OF RUST (% IFA) 28 DAT (Table 6: 50 g ac/ha): 14 % IFA
SEVERITY OF RUST (% IFA) 7 DAT (Table 6: 100 g ac/ha): 5 % IFA
SEVERITY OF RUST (% IFA) 14 DAT (Table 6: 100 g ac/ha): 8 % IFA
SEVERITY OF RUST (% IFA) 21 DAT (Table 6: 100 g ac/ha): 12 % IFA
SEVERITY OF RUST (% IFA) 28 DAT (Table 6: 100 g ac/ha): 13 % IFA
SEVERITY OF RUST (% IFA) 7 DAT (Table 6: 150 g ac/ha): 0 % IFA
SEVERITY OF RUST (% IFA) 14 DAT (Table 6: 150 g ac/ha): 6 % IFA
SEVERITY OF RUST (% IFA) 21 DAT (Table 6: 150 g ac/ha): 9 % IFA
SEVERITY OF RUST (% IFA) 28 DAT (Table 6: 150 g ac/ha): 12 % IFA
SEVERITY OF RUST (% IFA) 7 DAT (Table 6: 200 g ac/ha): 3 % IFA
SEVERITY OF RUST (% IFA) 14 DAT (Table 6: 200 g ac/ha): 0 % IFA
SEVERITY OF RUST (% IFA) 21 DAT (Table 6: 200 g ac/ha): 6 % IFA
SEVERITY OF RUST (% IFA) 28 DAT (Table 6: 200 g ac/ha): 9 % IFA
SEVERITY OF RUST (% IFA) 7 DAT (Table 6: 300 g ac/ha): 0 % IFA
SEVERITY OF RUST (% IFA) 14 DAT (Table 6: 300 g ac/ha): 0 % IFA
SEVERITY OF RUST (% IFA) 21 DAT (Table 6: 300 g ac/ha): 3 % IFA
SEVERITY OF RUST (% IFA) 28 DAT (Table 6: 300 g ac/ha): 7 % IFA
effective in controlling soybean rust: effective in controlling soybean rust

C[C@@H](c1nc(-c2ccc(C#N)cc2)cs1)[C@](O)(Cn1cncn1)c1ccc(F)cc1F [Ravuconazole, 4-[2-[(1R,2R)-2-(2,4-difluor-phenyl)-2-hydroxy-1-methyl-3-(1H-1,2,4-triazol-1-yl)propyl]4-thiazolyl]-benzonitriyl]
SEVERITY OF RUST (% IFA) 7 DAT (Table 4: 50 g ca/ha): 15 % IFA
SEVERITY OF RUST (% IFA) 14 DAT (Table 4: 50 g ca/ha): 16 % IFA
SEVERITY OF RUST (% IFA) 21 DAT (Table 4: 50 g ca/ha): 16 % IFA
SEVERITY OF RUST (% IFA) 28 DAT (Table 4: 50 g ca/ha): 18 % IFA
SEVERITY OF RUST (% IFA) 7 DAT (Table 4: 100 g ca/ha): 12 % IFA
SEVERITY OF RUST (% IFA) 14 DAT (Table 4: 100 g ca/ha): 12 % IFA
SEVERITY OF RUST (% IFA) 21 DAT (Table 4: 100 g ca/ha): 14 % IFA
SEVERITY OF RUST (% IFA) 28 DAT (Table 4: 100 g ca/ha): 18 % IFA
SEVERITY OF RUST (% IFA) 7 DAT (Table 4: 150 g ca/ha): 9 % IFA
SEVERITY OF RUST (% IFA) 14 DAT (Table 4: 150 g ca/ha): 11 % IFA
SEVERITY OF RUST (% IFA) 21 DAT (Table 4: 150 g ca/ha): 11 % IFA
SEVERITY OF RUST (% IFA) 28 DAT (Table 4: 150 g ca/ha): 16 % IFA
SEVERITY OF RUST (% IFA) 7 DAT (Table 4: 200 g ca/ha): 3 % IFA
SEVERITY OF RUST (% IFA) 14 DAT (Table 4: 200 g ca/ha): 7 % IFA
SEVERITY OF RUST (% IFA) 21 DAT (Table 4: 200 g ca/ha): 11 % IFA
SEVERITY OF RUST (% IFA) 28 DAT (Table 4: 200 g ca/ha): 15 % IFA
SEVERITY OF RUST (% IFA) 7 DAT (Table 4: 300 g ca/ha): 2 % IFA
SEVERITY OF RUST (% IFA) 14 DAT (Table 4: 300 g ca/ha): 3 % IFA
SEVERITY OF RUST (% IFA) 21 DAT (Table 4: 300 g ca/ha): 9 % IFA
SEVERITY OF RUST (% IFA) 28 DAT (Table 4: 300 g ca/ha): 11 % IFA
effective in controlling soybean rust: effective
